The values that follow come from US5028622A, “Administration of amino acids as treatment for neurodegenerative disorders” (Ajinomoto Company, Inc., priority 1989, dated 1991).

A short description of one series: clinical. To be noted: human, in vivo. The text has this:
FIG. 4. Results of the branched-chain amino acid oral test dose. […] Blood samples were drawn at the times indicated and processed as previously described(5). Data points represent mean values from 9 patients ±SEM. * Denotes p<0.001 and p<005. Symbols refer comparisons to 0 time values according to the student's t-test.
(§1) Baseline blood chemistries and complete blood counts (CBC were obtained. To assure bioavailability of the BCAA, an oral test dose of the above-described mixture or placebo was given after overnight fasting at baseline. Blood samples were drawn at 0, 60 and 120 minutes after dosing for multi-chemistries, CBSs and serum ammonia and amino acid levels. In addition, a random blood sample was obtained for the above studies at three month intervals with no attention paid to time of oral dosing. Plasma amino acid levels were assayed as previously described. [A. Platakis and J. Caroscio, "Abnormal Glutamate Metabolism in Amyotrophic Lateral Sclerosis, " Ann Neurol, 1987, 22:575-579. The contents of this article are herein incorporated by reference]

A short description of series [1]: Random blood samples during the one-year trial: plasma amino acid levels. The class given is in vivo, human. Particulars: amino acid-treated ALS patients. The protocol: as §1
The subject of series [2] is glutamate dehydrogenase (GDH). Particulars: literature (Yielding and Tomkins 1961); cited from earlier work.
The next series relates to ALS. To be noted: literature (Patten and Klein 1988); cited from earlier work.
Series [3] has as its target T1, glutamate dehydrogenase (GDH) (Homo sapiens, UniProt P00367).
T1 construct: GDH present in post mortem brain tissue; from tissue; host or cells: human post mortem brain: cerebellum (control and multisystem atrophy patient 1), frontal cortex (multisystem atrophy patient 2)
In words: In vitro leucine activation of membrane bound GDH in post mortem brain tissue. The class given is biochemical. Particulars: for activity at 250 µM: leucine 0.25 mM; for activity at 500 µM: leucine 0.50 mM; for activity at 1000 µM: leucine 1.0 mM; for activity at 5000 µM: leucine 5.0 mM; for activity at 10000 µM: leucine 10 mM. The text has this: (Table 4) Tissue preparation and GDH determinations were done according to methods previously reported. [A. D. Colon, A. Plaitakis, S. Berl, and D. D. Clark. "The purification and characterization of soluble and particulate Glutamate Dehydrogenase in Rat Brain," Neurochemistry, 1986, 46:1811-1819. The contents of this publication are herein incorporated by reference] […] FIG. 4.

The conditions of series [4]: in vivo; cited from earlier work.
[5] abbreviates: Control Patient Cerebellum, read-out: Percent Baseline GDH Activity.
The mark [6] stands for this setting: Multisystem Atrophy Multineuron Disease Patient 1 Cerebellum, read-out: Percent Baseline GDH Activity.
The mark [7] stands for this setting: Multisystem Atrophy Multineuron Disease Patient 2 Frontal Cortex, read-out: Percent Baseline GDH Activity.

Structures are written as SMILES. “Also recorded” adds a separate entry of the source. Read-outs that look alike come from different tables or passages of the source.

T1 sequence (P00367 54-558): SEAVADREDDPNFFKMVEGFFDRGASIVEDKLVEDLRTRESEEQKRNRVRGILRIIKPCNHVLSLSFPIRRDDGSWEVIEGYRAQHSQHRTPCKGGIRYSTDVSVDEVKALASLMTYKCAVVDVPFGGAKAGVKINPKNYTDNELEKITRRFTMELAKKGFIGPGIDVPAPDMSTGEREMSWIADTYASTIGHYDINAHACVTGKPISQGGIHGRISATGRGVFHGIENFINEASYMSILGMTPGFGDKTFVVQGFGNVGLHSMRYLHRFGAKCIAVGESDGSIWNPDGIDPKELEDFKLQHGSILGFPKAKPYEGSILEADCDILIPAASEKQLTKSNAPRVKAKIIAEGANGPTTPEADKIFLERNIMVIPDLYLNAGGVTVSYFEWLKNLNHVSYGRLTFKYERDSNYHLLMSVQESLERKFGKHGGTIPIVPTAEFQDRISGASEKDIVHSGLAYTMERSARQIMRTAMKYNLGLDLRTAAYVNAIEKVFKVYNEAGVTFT

As to `CC(C)[C@H](N)C(=O)O` [L-valine], the “increase in plasma level following oral dosing” value in the series “clinical” (60 min) is given as 95%; in “clinical” (120 min), 53%. Further, the “plasma level higher than that of placebo-treated patients” value (“plasma level higher than that” for short) in series [1] is reported as 61%. In addition, the “activation of glutamate dehydrogenase in vitro” value (from here on “activation”) in series [2] is “allosterically activate”.

On to `CC[C@H](C)[C@H](N)C(=O)O` [L-isoleucine], for which the figures for the “increase in plasma level following oral dosing” value in “clinical” (60 min) and in “clinical” (120 min) were 393% and 183%, respectively. Besides, the “plasma level higher than that” value in series [1] came to 93%. In series [2], the “activation” value was “allosterically activate; also recorded: can be activated”. Moreover, the “status of ALS patients treated with it as placebo substituted for L-threonine” value in the series with ALS is “revert to previous status”.

On to `CC(C)C[C@H](N)C(=O)O` [L-leucine], for which the “increase in plasma level following oral dosing” value in “clinical” (60 min) is on record as 300%. Also, the “increase in plasma level following oral dosing” value in the series “clinical” (120 min) came out at 192%. In the series “clinical” (po), the concentration at 1 h is ~450 µM and the concentration at 2 h was ~300 µM. In series [1], the “plasma level higher than that” value is 112%. In series [3] (setting [5]), the activity at 250 µM is 117%, the activity at 500 µM came to 135%, the activity at 1000 µM was found to be 143% and the activity at 5000 µM is 155%. Further, the activity at 10000 µM in series [3] (setting [5]) came out at 160%. Besides, the activity at 2500 µM in series [3] (Control Patient Cerebellum, leucine 2.5 mM, read-out: Percent Baseline GDH Activity) was found to be 155%. Moreover, in series [3] (setting [6]), the activity at 250 µM came out at 117%, the activity at 500 µM came to 153%, the activity at 1000 µM came to 186% and the activity at 5000 µM turned out to be 176%. Moreover, the activity at 10000 µM in series [3] (setting [6]) turned out to be 176%. Moreover, the activity at 150 µM in series [3] (Multisystem Atrophy Multineuron Disease Patient 2 Frontal Cortex, leucine 0.15 mM, read-out: Percent Baseline GDH Activity) is 122%. Also, in series [3] (setting [7]), the activity at 250 µM turned out to be 128% and the activity at 500 µM was determined as 141%. The “lowest concentration effective in producing increases in GDH activity” value in series [3] (post mortem brain tissue, effect concentration dependent) was 0.15 mM. In addition, the “activation” value in series [2] was “allosterically activate; also recorded: can be activated”. Further, the “status of ALS patients treated with it as placebo substituted for L-threonine” value with ALS is listed as “revert to previous status”. In addition, the “effect on plasma and CSF levels of the other two BCAAs” value in series [4] was “severely depress”.
